Results taken from the supplement of paper PMC10307832.

Key:
Assay in all cases: relative viability (nuclei count vs DMSO), 5 days (fraction); higher = more cells survive
Idelalisib + AZD7762 = compound: CC[C@H](Nc1ncnc2[nH]cnc12)c1nc2cccc(F)c2c(=O)n1-c1ccccc1 [Idelalisib] + NC(=O)Nc1cc(-c2cccc(F)c2)sc1C(=O)N[C@H]1CCCNC1 [AZD7762] (partner 0.2 µM)
How it was run: (§1)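 One day after seeding in 1536-well plates, lung cancer cell lines were dosed by pin tool. Dosing was either single-drug or a fixed anchor-drug dose plus five library-drug doses (not always all listed) in √10 steps. After 5 days, nuclei were stained in one fix-and-stain step and counted on 4× images, and relative viability is the nuclei count of treated wells over that of vehicle wells, given as the median of duplicate plates.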

Idelalisib + Palbociclib = compound: CC[C@H](Nc1ncnc2[nH]cnc12)c1nc2cccc(F)c2c(=O)n1-c1ccccc1 [Idelalisib] + CC(=O)c1c(C)c2cnc(Nc3ccc(N4CCNCC4)cn3)nc2n(C2CCCC2)c1=O [Palbociclib] (partner 0.5 µM)
How it was run: as §1

Idelalisib + Luminespib = compound: CC[C@H](Nc1ncnc2[nH]cnc12)c1nc2cccc(F)c2c(=O)n1-c1ccccc1 [Idelalisib] + CCNC(=O)c1noc(-c2cc(C(C)C)c(O)cc2O)c1-c1ccc(CN2CCOCC2)cc1 [Luminespib] (partner 0.01 µM)
How it was run: as §1

Pemetrexed + AZD7762 = compound: Nc1nc2[nH]cc(CCc3ccc(C(=O)N[C@@H](CCC(=O)O)C(=O)O)cc3)c2c(=O)[nH]1 [Pemetrexed] + NC(=O)Nc1cc(-c2cccc(F)c2)sc1C(=O)N[C@H]1CCCNC1 [AZD7762] (partner 0.2 µM)
How it was run: as §1

Cell Line	relative viability (Idelalisib + AZD7762; first compound 0.04 µM)	relative viability (Idelalisib + AZD7762; first compound 0.1265 µM)	relative viability (Idelalisib + AZD7762; first compound 0.4 µM)	relative viability (Idelalisib + AZD7762; first compound 1.265 µM)	relative viability (Idelalisib + AZD7762; first compound 4 µM)	relative viability (Idelalisib + Palbociclib; first compound 0.04 µM)	relative viability (Idelalisib + Palbociclib; first compound 0.1265 µM)	relative viability (Idelalisib + Palbociclib; first compound 0.4 µM)	relative viability (Idelalisib + Palbociclib; first compound 1.265 µM)	relative viability (Idelalisib + Palbociclib; first compound 4 µM)	relative viability (Idelalisib + Luminespib; first compound 0.04 µM)	relative viability (Idelalisib + Luminespib; first compound 0.1265 µM)	relative viability (Idelalisib + Luminespib; first compound 0.4 µM)	relative viability (Idelalisib + Luminespib; first compound 1.265 µM)	relative viability (Idelalisib + Luminespib; first compound 4 µM)	relative viability (Pemetrexed + AZD7762; first compound 0.002 µM)	relative viability (Pemetrexed + AZD7762; first compound 0.006325 µM)	relative viability (Pemetrexed + AZD7762; first compound 0.02 µM)	relative viability (Pemetrexed + AZD7762; first compound 0.06325 µM)	relative viability (Pemetrexed + AZD7762; first compound 0.2 µM)
NCI-H322M	0.628	0.524	0.678	0.439	0.525	0.495	0.488	0.424	0.435	0.508	0.955	0.919	0.719	0.847	0.683	0.709	0.634	0.565	0.637	0.557
NCI-H358	0.571	0.462	0.377	0.295	0.409	0.178	0.138	0.137	0.153	0.153	0.284	0.587	0.347	0.235	0.159	0.55	0.321	0.539	0.338	0.266
NCI-H441	1.31	1.08	–	0.715	1.32	0.231	0.155	–	0.23	0.182	0.365	0.354	0.308	0.308	0.316	1.12	1.1	1.11	1.03	0.291
NCI-H460	0.639	0.611	0.615	0.2	0.682	0.145	0.286	0.175	0.121	0.103	0.0345	0.032	0.0291	0.0326	0.0297	0.589	0.707	0.657	0.194	0.0726
NCI-H522	0.857	0.909	0.849	0.745	0.851	0.958	0.793	0.903	0.947	0.796	1.13	–	1.21	1.12	1.23	0.999	0.806	1.05	0.91	0.805
NCI-H647	0.546	0.631	0.409	0.198	0.397	0.393	0.319	0.25	0.242	0.219	0.171	0.141	–	0.241	0.121	0.488	0.626	0.435	0.333	0.143
NCI-H650	1.48	1.04	0.79	0.378	1.08	0.327	0.314	0.309	0.312	0.296	0.894	0.703	0.648	0.869	0.765	0.966	0.939	–	0.83	0.931
NCI-H727	0.625	0.574	0.578	0.379	0.704	0.7	0.566	0.648	0.786	0.619	0.327	0.345	–	0.333	0.451	0.773	0.573	0.763	0.523	0.653
NCI-H838	0.902	0.935	0.907	0.69	0.892	0.207	0.262	0.186	0.213	0.171	0.235	0.346	0.273	0.339	0.243	0.934	0.862	0.757	0.635	0.579
NCI-H1355	0.817	0.786	0.625	0.523	0.703	0.415	0.407	0.333	0.364	0.312	0.672	0.779	0.531	0.628	0.602	0.732	0.838	0.771	0.794	0.808
NCI-H1395	0.415	0.45	0.417	0.371	0.422	0.636	0.615	0.595	0.564	0.453	0.675	0.72	0.662	0.694	0.645	0.387	0.373	0.421	0.415	0.38
NCI-H1437	1.09	1.03	1.06	0.863	1.15	0.334	0.413	0.318	0.361	0.325	1.11	1.15	1.05	1.22	1.18	1.03	1.1	1.06	0.323	0.231
NCI-H1651	0.522	0.456	0.46	0.245	0.519	0.518	0.524	0.489	0.522	0.442	0.789	1	0.832	0.809	0.605	0.412	0.452	0.51	0.44	0.455
NCI-H1666	0.821	0.808	0.878	0.763	0.851	0.615	0.6	0.645	0.689	0.645	1.09	1.13	1.06	1.01	1.04	0.79	0.843	0.835	0.72	0.456
NCI-H1734	0.544	0.543	0.477	0.209	0.552	0.38	0.397	0.301	0.303	0.31	0.247	0.184	0.203	0.192	0.155	0.415	0.584	0.649	0.508	0.332
NCI-H1755	0.386	0.437	0.376	0.31	0.381	0.462	0.422	0.444	0.437	0.465	0.331	0.339	0.449	0.699	0.293	0.42	0.453	0.483	0.393	0.295
